From patent publication US20260176320A1, “MODULATORS OF G-PROTEIN COUPLED RECEPTORS” (priority 2018, published 2026) come the findings set out here.

The target of one assay is GLP-1R (Homo sapiens, UniProt P43220). Put plainly: HitHunter cAMP assay (GLP-1R). The note with it: cAMP; for Emax: read-out: (Emax) GLP-1R. It is filed as cell-based. The method in brief:
(§1)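 Duplicate 22-point, 2-fold agonist titrations applied to receptor-expressing suspension cells in IBMX-containing HBSS; 30 min RT stimulation. Read: luminescent cAMP immunocompetition after O/N dark incubation.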

The target of the next assay is T1, GIP-R (Homo sapiens, UniProt P48546).
T1 sequence (P48546 22-466): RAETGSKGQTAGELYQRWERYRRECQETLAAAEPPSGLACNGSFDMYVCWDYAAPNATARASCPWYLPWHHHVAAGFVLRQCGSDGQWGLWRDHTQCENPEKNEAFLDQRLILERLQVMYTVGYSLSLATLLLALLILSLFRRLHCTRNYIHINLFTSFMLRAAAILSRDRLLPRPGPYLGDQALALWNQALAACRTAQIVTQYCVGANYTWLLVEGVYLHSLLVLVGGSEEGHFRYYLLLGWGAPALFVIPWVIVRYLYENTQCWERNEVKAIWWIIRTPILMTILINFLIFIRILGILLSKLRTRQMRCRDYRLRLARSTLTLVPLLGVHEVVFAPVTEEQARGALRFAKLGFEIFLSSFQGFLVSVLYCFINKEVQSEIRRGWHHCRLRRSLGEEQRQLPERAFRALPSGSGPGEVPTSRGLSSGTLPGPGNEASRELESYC
The experiment in a line: HitHunter cAMP assay (GIP-R). The assay is classed as cell-based. The following applies: cAMP; for Emax: read-out: (Emax) GIP-R. In short, it runs like this:
as §1
(Cyclic AMP is a second messenger, typically raised through Gs and lowered through Gi signalling.)

Setting [1] is: Table 3, read-out: EC50 GLP-1R/nM.
Setting [2] is: Table 3A, read-out: EC50 GLP-1R/nM.
The mark [3] stands for this setting: Table 3, read-out: EC50 GIP-R/nM.
The mark [4] stands for this setting: Table 3A, read-out: EC50 GIP-R/nM.

Read-outs that look alike come from different tables or passages of the source. Numbered stars: 1 amine (or outer) side, 2 acyl side, 3 side chain; on linkers, the order of the positions; unused ones are H or OH. Square brackets hold non-standard residues; d marks the D form. Side chains are listed from the residue outwards. Peptide text beside a SMILES is read from it. * marks the point of attachment. X9 = O=C([C@H](Cc1cc(O)no1)N[*:1])[*:2]; γGlu = O=C(O)[C@H](CCC(=O)[*:2])N[*:1]; Palmitoyl = CCCCCCCCCCCCCCCC(=O)*; X6 = O=C(CSCC(=O)*)NCCN1CCCCC1=O; Aib = CC(C)(N)C(=O)O Where only a bound is given, the exact number is not on record here.

GLP-1R, sequence (P43220 24-463): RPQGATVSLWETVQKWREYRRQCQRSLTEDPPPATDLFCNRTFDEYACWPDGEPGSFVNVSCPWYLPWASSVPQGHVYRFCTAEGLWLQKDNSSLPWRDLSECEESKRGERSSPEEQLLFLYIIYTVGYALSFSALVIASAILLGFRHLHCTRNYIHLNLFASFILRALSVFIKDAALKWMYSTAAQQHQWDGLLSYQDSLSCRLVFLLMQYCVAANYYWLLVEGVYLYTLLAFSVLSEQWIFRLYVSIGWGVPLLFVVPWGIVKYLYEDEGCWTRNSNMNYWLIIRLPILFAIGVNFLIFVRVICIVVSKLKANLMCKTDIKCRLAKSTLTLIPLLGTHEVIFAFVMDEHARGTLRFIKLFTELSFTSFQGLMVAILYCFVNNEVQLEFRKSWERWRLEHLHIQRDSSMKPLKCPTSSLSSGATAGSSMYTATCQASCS

What is called Emax is the size of the effect at its maximum, as opposed to the concentration needed. Turning to `CCCCCCCCCCCCCCCC(=O)N[C@@H](CCC(=O)NCCCC[C@H](NC(=O)[C@H](CO)NC(=O)[C@@H]1CCCN1C(=O)[C@@H]1CCCN1C(=O)[C@@H]1CCCN1C(=O)[C@H](C)NC(=O)CNC(=O)[C@H](CO)NC(=O)[C@H](CO)NC(=O)[C@@H]1CCCN1C(=O)CNC(=O)CNC(=O)[C@H](C)NC(=O)[C@H](CC(C)C)NC(=O)[C@H](CC(C)C)NC(=O)[C@H](Cc1c[nH]c2ccccc12)NC(=O)[C@H](CC(N)=O)NC(=O)[C@@H](NC(=O)[C@H](Cc1ccccc1)NC(=O)[C@H](CCC(=O)O)NC(=O)C(C)(C)NC(=O)[C@H](C)NC(=O)[C@H](C)NC(=O)[C@H](CCC(N)=O)NC(=O)[C@H](CCCCN)NC(=O)[C@H](CC(=O)O)NC(=O)[C@H](CC(C)C)NC(=O)[C@H](Cc1ccc(O)cc1)NC(=O)[C@@H](NC(=O)[C@H](CO)NC(=O)[C@H](Cc1ccc(O)cc1)NC(=O)[C@H](CC(=O)O)NC(=O)[C@H](CO)NC(=O)[C@@H](NC(=O)[C@H](Cc1ccccc1)NC(=O)[C@@H](NC(=O)CNC(=O)[C@H](CCC(=O)O)NC(=O)CSCC(=O)NCCN1CC[C@@H](O)C1=O)[C@@H](C)O)[C@@H](C)O)[C@@H](C)CC)C(C)C)C(N)=O)C(=O)O` [Compound 47], the Emax came to 100% at GLP-1R (Table 3), 100% on GLP-1R (Table 3A), 24% on GIP-R (Table 3) and 24% on GIP-R (Table 3A). The EC50 at GLP-1R (setting [1]) is less than 0.1 nM; at GLP-1R (setting [2]), less than 0.1 nM; at GIP-R (setting [3]), 1 to 10 nM; at GIP-R (setting [4]) it was 10 to 100 nM.

For the molecule `CCCCCCCCCCCCCCCC(=O)N[C@@H](CCC(=O)NCCCC[C@H](NC(=O)[C@H](CO)NC(=O)[C@@H]1CCCN1C(=O)[C@@H]1CCCN1C(=O)[C@@H]1CCCN1C(=O)[C@H](C)NC(=O)CNC(=O)[C@H](CO)NC(=O)[C@H](CO)NC(=O)[C@@H]1CCCN1C(=O)CNC(=O)CNC(=O)[C@H](C)NC(=O)[C@H](CC(C)C)NC(=O)[C@H](CC(C)C)NC(=O)[C@H](Cc1c[nH]c2ccccc12)NC(=O)[C@H](CC(N)=O)NC(=O)[C@@H](NC(=O)[C@H](Cc1ccccc1)NC(=O)[C@H](CCC(=O)O)NC(=O)C(C)(C)NC(=O)[C@H](C)NC(=O)[C@H](C)NC(=O)[C@H](CCC(N)=O)NC(=O)[C@H](CCCCN)NC(=O)[C@H](CC(=O)O)NC(=O)[C@H](CC(C)C)NC(=O)[C@H](Cc1ccc(O)cc1)NC(=O)[C@@H](NC(=O)[C@H](CO)NC(=O)[C@H](Cc1ccc(O)cc1)NC(=O)[C@H](CC(=O)O)NC(=O)[C@H](CO)NC(=O)[C@@H](NC(=O)[C@H](Cc1ccccc1)NC(=O)[C@@H](NC(=O)CNC(=O)[C@H](CCC(=O)O)NC(=O)CSCC(=O)NCCN1C(=O)CCC(c2ccccc2)C1=O)[C@@H](C)O)[C@@H](C)O)[C@@H](C)CC)C(C)C)C(N)=O)C(=O)O` (mixture of isomers) [Compound 95], the EC50 on GLP-1R (EC50 GLP-1R/nM, Table 3) lay in the range of 10 to 100 nM; at GLP-1R (EC50 GLP-1R/nM, Table 3A), 10 to 100 nM; on GIP-R (EC50 GIP-R/nM, Table 3) it was 1 to 10 nM; at GIP-R (EC50 GIP-R/nM, Table 3A), 10 to 100 nM. For the same molecule, the Emax at GLP-1R (Table 3) stood at 84%; at GLP-1R (Table 3A), 84%; on GIP-R (Table 3) it was 20%; at GIP-R (Table 3A), 20%.

On to `CCCCCCCCCCCCCCCC(=O)N[C@@H](CCC(=O)NCCCC[C@H](NC(=O)[C@H](CO)NC(=O)[C@@H]1CCCN1C(=O)[C@@H]1CCCN1C(=O)[C@@H]1CCCN1C(=O)[C@H](C)NC(=O)CNC(=O)[C@H](CO)NC(=O)[C@H](CO)NC(=O)[C@@H]1CCCN1C(=O)CNC(=O)CNC(=O)[C@H](C)NC(=O)[C@H](CC(C)C)NC(=O)[C@H](CC(C)C)NC(=O)[C@H](Cc1c[nH]c2ccccc12)NC(=O)[C@H](CC(N)=O)NC(=O)[C@@H](NC(=O)[C@H](Cc1ccccc1)NC(=O)[C@H](CCC(=O)O)NC(=O)C(C)(C)NC(=O)[C@H](C)NC(=O)[C@H](C)NC(=O)[C@H](CCC(N)=O)NC(=O)[C@H](CCCCN)NC(=O)[C@H](CC(=O)O)NC(=O)[C@H](CC(C)C)NC(=O)[C@H](Cc1ccc(O)cc1)NC(=O)[C@@H](NC(=O)[C@H](CO)NC(=O)[C@H](Cc1ccc(O)cc1)NC(=O)[C@H](CC(=O)O)NC(=O)[C@H](CO)NC(=O)[C@@H](NC(=O)[C@H](Cc1ccccc1)NC(=O)[C@@H](NC(=O)CNC(=O)[C@H](CCC(=O)O)NC(=O)CSCC(=O)NCCN1C[C@H](O)CC1=O)[C@@H](C)O)[C@@H](C)O)[C@@H](C)CC)C(C)C)C(N)=O)C(=O)O` [Compound 50], for which the Emax was determined as 103% on GLP-1R (Table 3), 103% on GLP-1R (Table 3A), 26% on GIP-R (Table 3) and 26% on GIP-R (Table 3A). Also, the EC50 was 0.1 to 1 nM on GLP-1R (setting [1]), 0.1 to 1 nM at GLP-1R (setting [2]), 1 to 10 nM on GIP-R (setting [3]) and 10 to 100 nM on GIP-R (setting [4]).

Turning to `CCCCCCCCCCCCCCCC(=O)N[C@@H](CCC(=O)NCCCC[C@H](NC(=O)[C@H](CO)NC(=O)[C@@H]1CCCN1C(=O)[C@@H]1CCCN1C(=O)[C@@H]1CCCN1C(=O)[C@H](C)NC(=O)CNC(=O)[C@H](CO)NC(=O)[C@H](CO)NC(=O)[C@@H]1CCCN1C(=O)CNC(=O)CNC(=O)[C@H](C)NC(=O)[C@H](CC(C)C)NC(=O)[C@H](CC(C)C)NC(=O)[C@H](Cc1c[nH]c2ccccc12)NC(=O)[C@H](CC(N)=O)NC(=O)[C@@H](NC(=O)[C@H](Cc1ccccc1)NC(=O)[C@H](CCC(=O)O)NC(=O)C(C)(C)NC(=O)[C@H](C)NC(=O)[C@H](C)NC(=O)[C@H](CCC(N)=O)NC(=O)[C@H](CCCCN)NC(=O)[C@H](CC(=O)O)NC(=O)[C@H](CC(C)C)NC(=O)[C@H](Cc1ccc(O)cc1)NC(=O)[C@@H](NC(=O)[C@H](CO)NC(=O)[C@H](Cc1ccc(O)cc1)NC(=O)[C@H](CC(=O)O)NC(=O)[C@H](CO)NC(=O)[C@@H](NC(=O)[C@H](Cc1ccccc1)NC(=O)[C@@H](NC(=O)CNC(=O)[C@H](CCC(=O)O)NC(=O)CSCC(=O)NCCN1C[C@@H](O)CC1=O)[C@@H](C)O)[C@@H](C)O)[C@@H](C)CC)C(C)C)C(N)=O)C(=O)O` [Compound 45], the maximal effect (Emax) came to 100% at GLP-1R (Table 3), 100% on GLP-1R (Table 3A), 42% on GIP-R (Table 3) and 42% on GIP-R (Table 3A). Moreover, the EC50 on GLP-1R (setting [1]) was 0.1 to 1 nM; at GLP-1R (setting [2]), 0.1 to 1 nM; at GIP-R (setting [3]) it was 1 to 10 nM; on GIP-R (setting [4]), 1 to 10 nM.

For `CCCCCCCCCCCCCCCC(=O)N[C@@H](CCC(=O)NCCCC[C@H](NC(=O)[C@H](CO)NC(=O)[C@@H]1CCCN1C(=O)[C@@H]1CCCN1C(=O)[C@@H]1CCCN1C(=O)[C@H](C)NC(=O)CNC(=O)[C@H](CO)NC(=O)[C@H](CO)NC(=O)[C@@H]1CCCN1C(=O)CNC(=O)CNC(=O)[C@H](C)NC(=O)[C@H](CC(C)C)NC(=O)[C@H](CC(C)C)NC(=O)[C@H](Cc1c[nH]c2ccccc12)NC(=O)[C@H](CC(N)=O)NC(=O)[C@@H](NC(=O)[C@H](Cc1ccccc1)NC(=O)[C@H](CCC(=O)O)NC(=O)C(C)(C)NC(=O)[C@H](C)NC(=O)[C@H](C)NC(=O)[C@H](CCC(N)=O)NC(=O)[C@H](CCCCN)NC(=O)[C@H](CC(=O)O)NC(=O)[C@H](CC(C)C)NC(=O)[C@H](Cc1ccc(O)cc1)NC(=O)[C@@H](NC(=O)[C@H](CO)NC(=O)[C@H](Cc1ccc(O)cc1)NC(=O)[C@H](CC(=O)O)NC(=O)[C@H](CO)NC(=O)[C@@H](NC(=O)[C@H](Cc1ccccc1)NC(=O)[C@@H](NC(=O)CNC(=O)[C@H](CCC(=O)O)NC(=O)CSCC(=O)NCCN1C(=O)CCN1C)[C@@H](C)O)[C@@H](C)O)[C@@H](C)CC)C(C)C)C(N)=O)C(=O)O` [Compound 55], the Emax is 104% on GLP-1R (Table 3), 104% at GLP-1R (Table 3A), 47% on GIP-R (Table 3) and 47% at GIP-R (Table 3A). In addition, the EC50 on GLP-1R (setting [1]) lay in the range of 0.1 to 1 nM; on GLP-1R (setting [2]), 0.1 to 1 nM; on GIP-R (setting [3]), 1 to 10 nM; at GIP-R (setting [4]) it was 1 to 10 nM.

Turning to `CCCCCCCCCCCCCCCC(=O)N[C@@H](CCC(=O)NCCCC[C@H](NC(=O)[C@H](CO)NC(=O)[C@@H]1CCCN1C(=O)[C@@H]1CCCN1C(=O)[C@@H]1CCCN1C(=O)[C@H](C)NC(=O)CNC(=O)[C@H](CO)NC(=O)[C@H](CO)NC(=O)[C@@H]1CCCN1C(=O)CNC(=O)CNC(=O)[C@H](C)NC(=O)[C@H](CC(C)C)NC(=O)[C@H](CC(C)C)NC(=O)[C@H](Cc1c[nH]c2ccccc12)NC(=O)[C@H](CC(N)=O)NC(=O)[C@@H](NC(=O)[C@H](Cc1ccccc1)NC(=O)[C@H](CCC(=O)O)NC(=O)C(C)(C)NC(=O)[C@H](C)NC(=O)[C@H](C)NC(=O)[C@H](CCC(N)=O)NC(=O)[C@H](CCCCN)NC(=O)[C@H](CC(=O)O)NC(=O)[C@H](CC(C)C)NC(=O)[C@H](Cc1ccc(O)cc1)NC(=O)[C@@H](NC(=O)[C@H](CO)NC(=O)[C@H](Cc1ccc(O)cc1)NC(=O)[C@H](CC(=O)O)NC(=O)[C@H](CO)NC(=O)[C@@H](NC(=O)[C@H](Cc1ccccc1)NC(=O)[C@@H](NC(=O)CNC(=O)[C@H](Cc1cc(O)no1)NC(=O)CSCC(=O)NCCN1CCCCC1=O)[C@@H](C)O)[C@@H](C)O)[C@@H](C)CC)C(C)C)C(N)=O)C(=O)O` [Compound 292] (X6-[X9]GTFTSDYSIYLDKQAA[Aib]EFVNWLLAGGPSSGAPPPSK([γGlu-Palmitoyl])-NH2), the Emax at GLP-1R (Table 3A) stood at 90%; on GIP-R (Table 3A), 50%. The EC50 at GLP-1R (setting [2]) was 1 to 10 nM; on GIP-R (setting [4]), 10 to 100 nM.
